Where two headings read alike, the source gives them in different places. Bounds are passed on as bounds.

For assay [1], the system named is human skin fibroblasts. Put plainly: Proliferation of human skin fibroblasts (cell counting). It counts as cell-based. To be noted: Homo sapiens, Skin fibroblast, read-out: Proliferation (IC50). Here is the method:
Human fibroblasts were grown in […] in Dulbecco's modified Eagles medium supplemented with streptomycin/penicillin (100 units of each/ml), kanamycin (100 units/ml) and 10% foetal calf serum. Cell proliferation was determined by cell counting after trypsinisation three days after seeding.

For assay [2], the system named is human fibroblasts. Nature of the assay: Hyaluronan production of human fibroblasts (ELISA of culture medium). It counts as cell-based. To be noted: Homo sapiens, Fibroblast, read-out: HA production (IC50).
For assay [3], the system named is human fibroblasts. Nature of the assay: Export of fluorescent hyaluronan oligosaccharides from the cytosol of human fibroblasts. The assay is classed as cell-based. Here is the method: The media were withdrawn and the cells were incubated at 37° C. with DMEM/water (3:2, v/v) for 2 min. The cells were subjected twice to this incubation sequence and then grown further in DMEM. […] Fluorescent high molecular weight hyaluronan and fluorescent oligosaccharides were introduced into the cytosol by osmotic lysis of pinocytotic vesicles. The kinetics of export was measured in a fluorescent ELISA reader in the presence and absence of the hyaluronan transport inhibitor benzbromaron.

Assay [4] deals with hyaluronan synthase.
Assay [5] concerns the target MRP5 (Homo sapiens, UniProt O15440). To be noted: cited from earlier work.
Assay [6] addresses MDR1 (Homo sapiens, UniProt P08183). Conditions: cited from earlier work.
Assay [7] deals with T1, MRP4 (Homo sapiens, UniProt O15439).
T1 sequence (O15439 1-1325): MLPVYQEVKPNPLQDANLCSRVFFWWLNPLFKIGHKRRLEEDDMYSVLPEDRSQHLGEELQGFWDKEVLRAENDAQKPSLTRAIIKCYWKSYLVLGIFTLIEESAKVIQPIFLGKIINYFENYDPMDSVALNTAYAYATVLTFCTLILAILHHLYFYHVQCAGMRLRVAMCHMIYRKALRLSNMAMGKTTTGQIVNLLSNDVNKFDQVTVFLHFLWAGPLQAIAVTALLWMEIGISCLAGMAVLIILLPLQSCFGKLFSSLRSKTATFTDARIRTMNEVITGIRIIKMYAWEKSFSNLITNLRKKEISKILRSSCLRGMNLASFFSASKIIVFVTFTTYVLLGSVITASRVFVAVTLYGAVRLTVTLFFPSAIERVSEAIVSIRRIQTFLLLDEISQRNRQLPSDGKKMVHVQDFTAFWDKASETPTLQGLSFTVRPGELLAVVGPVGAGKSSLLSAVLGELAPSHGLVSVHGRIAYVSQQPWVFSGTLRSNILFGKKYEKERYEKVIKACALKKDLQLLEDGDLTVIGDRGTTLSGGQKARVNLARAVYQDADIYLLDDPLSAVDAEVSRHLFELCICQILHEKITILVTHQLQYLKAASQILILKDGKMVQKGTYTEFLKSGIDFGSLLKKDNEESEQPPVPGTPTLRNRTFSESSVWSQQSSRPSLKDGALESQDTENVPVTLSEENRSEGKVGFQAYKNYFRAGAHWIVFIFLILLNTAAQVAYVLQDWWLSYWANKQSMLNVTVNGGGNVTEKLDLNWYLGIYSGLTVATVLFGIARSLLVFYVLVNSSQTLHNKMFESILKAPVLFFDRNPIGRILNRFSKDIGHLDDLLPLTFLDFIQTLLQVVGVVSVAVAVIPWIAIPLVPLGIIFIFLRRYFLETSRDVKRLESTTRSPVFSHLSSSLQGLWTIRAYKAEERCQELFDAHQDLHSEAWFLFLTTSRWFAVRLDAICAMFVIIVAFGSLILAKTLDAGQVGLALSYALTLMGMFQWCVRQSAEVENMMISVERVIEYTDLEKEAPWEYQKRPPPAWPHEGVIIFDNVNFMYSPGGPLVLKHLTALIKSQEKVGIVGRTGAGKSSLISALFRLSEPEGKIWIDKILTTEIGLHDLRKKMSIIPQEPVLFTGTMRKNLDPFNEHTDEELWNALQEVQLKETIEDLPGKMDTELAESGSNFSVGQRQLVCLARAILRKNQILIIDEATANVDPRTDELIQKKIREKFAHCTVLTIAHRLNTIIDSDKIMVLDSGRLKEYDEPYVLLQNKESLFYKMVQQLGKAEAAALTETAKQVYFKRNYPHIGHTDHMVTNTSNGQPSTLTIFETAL
Conditions: cited from earlier work.

Assay [8] relates to hyaluronan transport. Nature of the assay: Inhibition of hyaluronan transport (export) from human fibroblasts, discussion of Example 9. Conditions: for inhibition of hyaluronan transport (words): human fibroblasts.

Chain of MRP5 (O15440 whole entry): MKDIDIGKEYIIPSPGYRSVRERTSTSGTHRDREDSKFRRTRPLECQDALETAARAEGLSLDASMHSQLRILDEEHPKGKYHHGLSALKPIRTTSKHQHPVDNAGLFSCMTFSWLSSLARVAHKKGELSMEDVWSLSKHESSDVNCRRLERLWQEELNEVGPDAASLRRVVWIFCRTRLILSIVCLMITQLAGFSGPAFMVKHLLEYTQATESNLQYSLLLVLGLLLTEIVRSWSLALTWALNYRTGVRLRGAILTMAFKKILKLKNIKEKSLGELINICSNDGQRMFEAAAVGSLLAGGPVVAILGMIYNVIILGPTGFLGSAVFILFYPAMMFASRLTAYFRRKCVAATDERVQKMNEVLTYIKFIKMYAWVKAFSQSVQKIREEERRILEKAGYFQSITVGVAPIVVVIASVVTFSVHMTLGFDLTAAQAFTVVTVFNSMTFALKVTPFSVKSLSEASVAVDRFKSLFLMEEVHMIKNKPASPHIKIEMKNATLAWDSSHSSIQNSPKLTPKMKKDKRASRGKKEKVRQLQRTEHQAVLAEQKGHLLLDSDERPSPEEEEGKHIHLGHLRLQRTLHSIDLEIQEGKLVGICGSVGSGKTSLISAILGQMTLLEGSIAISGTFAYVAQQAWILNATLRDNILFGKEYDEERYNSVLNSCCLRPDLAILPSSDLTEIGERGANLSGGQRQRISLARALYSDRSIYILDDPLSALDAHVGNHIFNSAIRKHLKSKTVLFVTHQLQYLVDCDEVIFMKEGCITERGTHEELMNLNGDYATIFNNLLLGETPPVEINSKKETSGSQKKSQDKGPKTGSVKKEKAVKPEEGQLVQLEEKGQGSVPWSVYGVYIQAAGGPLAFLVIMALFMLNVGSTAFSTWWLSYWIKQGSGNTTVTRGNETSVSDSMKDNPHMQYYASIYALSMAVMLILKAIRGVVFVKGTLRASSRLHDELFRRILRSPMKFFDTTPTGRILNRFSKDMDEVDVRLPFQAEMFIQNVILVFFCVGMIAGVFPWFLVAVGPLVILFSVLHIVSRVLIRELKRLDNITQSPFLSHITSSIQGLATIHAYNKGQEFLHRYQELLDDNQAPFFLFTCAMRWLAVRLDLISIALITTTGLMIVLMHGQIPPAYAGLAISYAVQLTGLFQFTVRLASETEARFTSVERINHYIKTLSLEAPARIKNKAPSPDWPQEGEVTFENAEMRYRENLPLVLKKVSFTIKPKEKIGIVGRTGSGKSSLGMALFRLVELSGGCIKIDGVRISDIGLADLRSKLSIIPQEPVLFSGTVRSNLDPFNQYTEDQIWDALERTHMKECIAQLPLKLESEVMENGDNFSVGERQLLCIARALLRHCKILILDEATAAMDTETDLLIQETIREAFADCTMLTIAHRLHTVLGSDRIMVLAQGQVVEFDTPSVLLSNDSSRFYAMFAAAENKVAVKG
Chain of MDR1 (P08183 whole entry): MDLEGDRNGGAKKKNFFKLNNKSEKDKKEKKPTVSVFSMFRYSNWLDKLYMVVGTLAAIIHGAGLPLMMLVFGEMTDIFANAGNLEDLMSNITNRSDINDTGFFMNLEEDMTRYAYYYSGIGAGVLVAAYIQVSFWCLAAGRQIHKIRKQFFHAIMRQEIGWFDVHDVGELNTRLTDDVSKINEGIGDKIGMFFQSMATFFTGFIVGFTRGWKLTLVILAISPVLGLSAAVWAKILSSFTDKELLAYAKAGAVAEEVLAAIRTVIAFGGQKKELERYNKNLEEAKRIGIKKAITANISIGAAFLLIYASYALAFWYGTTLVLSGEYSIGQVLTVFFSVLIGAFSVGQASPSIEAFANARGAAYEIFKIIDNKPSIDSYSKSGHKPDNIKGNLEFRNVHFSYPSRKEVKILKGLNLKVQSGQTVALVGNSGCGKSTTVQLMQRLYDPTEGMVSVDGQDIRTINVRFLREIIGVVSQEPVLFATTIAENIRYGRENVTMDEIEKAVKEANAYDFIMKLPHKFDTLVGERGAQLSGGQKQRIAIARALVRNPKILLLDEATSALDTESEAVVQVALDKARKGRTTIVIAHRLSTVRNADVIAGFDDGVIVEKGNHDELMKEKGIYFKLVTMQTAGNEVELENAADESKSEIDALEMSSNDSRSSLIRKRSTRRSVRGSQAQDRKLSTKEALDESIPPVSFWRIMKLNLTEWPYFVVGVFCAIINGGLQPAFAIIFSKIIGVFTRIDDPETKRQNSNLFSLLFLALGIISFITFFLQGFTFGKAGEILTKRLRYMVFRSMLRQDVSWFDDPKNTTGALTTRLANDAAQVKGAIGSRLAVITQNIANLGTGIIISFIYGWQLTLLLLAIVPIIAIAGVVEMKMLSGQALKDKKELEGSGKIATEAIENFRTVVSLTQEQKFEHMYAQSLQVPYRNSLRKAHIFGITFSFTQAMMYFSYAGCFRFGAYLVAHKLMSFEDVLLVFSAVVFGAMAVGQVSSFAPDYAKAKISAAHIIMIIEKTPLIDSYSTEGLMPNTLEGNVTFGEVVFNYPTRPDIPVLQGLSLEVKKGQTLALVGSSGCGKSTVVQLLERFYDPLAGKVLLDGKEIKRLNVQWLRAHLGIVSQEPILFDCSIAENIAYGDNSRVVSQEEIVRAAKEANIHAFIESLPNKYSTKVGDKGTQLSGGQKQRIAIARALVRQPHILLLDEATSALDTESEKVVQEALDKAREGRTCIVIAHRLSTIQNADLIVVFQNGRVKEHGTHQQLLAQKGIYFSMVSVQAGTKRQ

Take `CCc1oc2ccccc2c1C(=O)c1cc(Br)c(O)c(Br)c1` [Benzbromarone]: the IC50 is 75 µM in assay [1]; 30 µM in assay [2]; 12 µM in assay [4] (read-out: HA synthase activity (IC50), membranes of human fibroblasts); 150 µM in assay [5] (read-out: IC50 for MRP5); 150 µM in assay [5] (substrate PMEA, read-out: IC50, PMEA transport by MRP5); less than 5 µM in assay [5] (substrate S-(2,4-dinitrophenyl)glutathione, read-out: IC50, MRP5 mediated transport of S-(2,4-dinitrophenyl)glutathione). For the same compound, the IC50 is more than 800 µM in assay [6]; 150 µM in assay [7] (read-out: IC50, 9-(2-phosphonomethoxyethyl)adenine (PMEA) transport by MRP4, substrate PMEA); 150 µM in assay [7] (read-out: IC50 for MRP4); 150 µM in assay [7] (read-out: published inhibitory concentrations IC50 or Ki, MRP4); 25 µM in assay [8] (Homo sapiens, Fibroblast, read-out: IC50 for hyaluronan transport (export)). Also, in assay [3], the “export of fluorescent hyaluronan oligosaccharides from the cytosol” value is “inhibits the export”. For the same compound, the “hyaluronan transport / synthase activity in membranes” value in assay [4] (membranes from human fibroblasts) was “almost completely inhibited”. Moreover, the “inhibition of hyaluronan transport (words)” value in assay [8] is “very effective inhibitor”; in assay [8] (listed as benzbromarone), “inhibited hyaluronan transport”.
